Measured values published in the supplement of paper PMC13380429.

Experiments:
[1] = system: A549-ACE2 infected with SARS-CoV-2; assay: morphology score (similarity to uninfected cells); higher = more like uninfected cells; details: 24 h
A549-ACE2 [2] = assay: drug-induced phospholipidosis relative to tamoxifen; higher = more phospholipidosis
Vero E6 [3] = assay: relative viability EC50 (midpoint between 100% and the lowest measured viability); higher = less toxic; details: 72 h
U2OS [4] = assay: as above; details: 72 h
HepG2 [5] = assay: as above; details: 72 h
Caco-2 [6] = assay: as above; details: 72 h
[7] = system: A549-ACE2 infected with SARS-CoV-2; assay: cell count relative to DMSO; higher = less toxic; details: 24 h
[8] = system: A549-ACE2 infected with SARS-CoV-2; assay: SARS-CoV-2 infection rate relative to DMSO; higher = more infection; details: 24 h
Vero E6 [9] = assay: drug sensitivity score (DSS) for viability; higher = more toxic; extreme values may be limits of the assay; details: 72 h
U2OS [10] = assay: as above; details: 72 h
HepG2 [11] = assay: as above; details: 72 h
Calu-3 [12] = assay: as above; details: 72 h
Caco-2 [13] = assay: as above; details: 72 h
Vero E6 [14] = assay: cell viability relative to DMSO; higher = less toxic; details: 72 h
U2OS [15] = assay: as above; details: 72 h
HepG2 [16] = assay: as above; details: 72 h
Calu-3 [17] = assay: as above; details: 72 h
Caco-2 [18] = assay: as above; details: 72 h
Calu-3 [19] = assay: relative viability EC50 (midpoint between 100% and the lowest measured viability); higher = less toxic; details: 72 h
A549-ACE2 [20] = assay: phospholipidosis EC50; higher = less potent phospholipidosis inducer

c1cnc2c([O][Ga]([O]c3cccc4cccnc34)[O]c3cccc4cccnc34)cccc2c1 [gallium-triquinolin-8-olate]
Details | SARS-CoV-2 infection rate, [8] [%] | cell count, [7] [%] | cell viability, Caco-2 [18] [%] | cell viability, Calu-3 [17] [%] | cell viability, HepG2 [16] [%] | cell viability, U2OS [15] [%] | cell viability, Vero E6 [14] [%] | morphology score, [1]
1 nM | – | – | 94.3 | 95.9 | 96.5 | 97 | 116 | –
10 nM | – | – | 104 | 111 | 102 | 105 | 103 | –
100 nM | – | – | 89.1 | 97.6 | 118 | 100 | 106 | –
0.3 µM | 98 | 103 | – | – | – | – | – | 0.25
1000 nM | – | – | 116 | 110 | 97.1 | 102 | 102 | –
3 µM | 50 | 73 | – | – | – | – | – | 0.64
10 µM | 23 | 69 | – | – | – | – | – | 0.75
10000 nM | – | – | 6.6 | 51.7 | 2.2 | 19.7 | 87.7 | –
30 µM | 23 | 35 | – | – | – | – | – | 0.35

drug-induced phospholipidosis [%], A549-ACE2 [2]
Details | 0.3 µM | 0.833333 µM | 3.33333 µM
24 h | 3.04 | 1.03 | -5.09
48 h | 1.4 | -0.94 | –
72 h | 3.03 | 0.0941 | –

Details | drug sensitivity score | relative viability EC50
Caco-2 [6] | – | 3.85 µM
Caco-2 [13] | 4.3 | –
Calu-3 [12] | 2 | –
HepG2 [5] | – | 2960 nM
HepG2 [11] | 5.8 | –
U2OS [4] | – | 3.34 µM
U2OS [10] | 4.2 | –
Vero E6 [3] | – | > 10 µM
Vero E6 [9] | 0 | –

COC(=O)C[C@](O)(CCC(C)(C)O)C(=O)O[C@@H]1C(OC)=C[C@]23CCCN2CCc2cc4c(cc2[C@H]13)OCO4 [harringtonine]
Details | SARS-CoV-2 infection rate, [8] [%] | cell count, [7] [%] | cell viability, Caco-2 [18] [%] | cell viability, Calu-3 [17] [%] | cell viability, HepG2 [16] [%] | cell viability, U2OS [15] [%] | cell viability, Vero E6 [14] [%] | morphology score, [1]
1 nM | – | – | 108 | 93.2 | 103 | 95.9 | 105 | –
10 nM | – | – | 94.6 | 98.7 | 108 | 99.2 | 100 | –
100 nM | – | – | 73.5 | 81 | 45.7 | 46.8 | 109 | –
0.3 µM | 5 | 92 | – | – | – | – | – | 0.57
1000 nM | – | – | 56.3 | 34.9 | 11.1 | 11 | 34.2 | –
3 µM | 21 | 62 | – | – | – | – | – | 0.26
10 µM | 12 | 50 | – | – | – | – | – | 0.27
10000 nM | – | – | 53.6 | 24.9 | 0.3 | 0.9 | 9.1 | –
30 µM | 33 | 37 | – | – | – | – | – | 0.29

A549-ACE2 [2], 24 h
Details | drug-induced phospholipidosis [%]
0.3 µM | 0.19
0.833333 µM | -6.78

Details | drug sensitivity score | relative viability EC50
Caco-2 [13] | 11.3 | –
Calu-3 [12] | 14.3 | –
Calu-3 [19] | – | 232 nM
HepG2 [5] | – | 93.4 nM
HepG2 [11] | 24.5 | –
U2OS [4] | – | 0.0946 µM
U2OS [10] | 23.5 | –
Vero E6 [3] | – | 0.686 µM
Vero E6 [9] | 12.6 | –

CN1CCCC(CN2c3ccccc3Sc3ccccc32)C1 (stereo not drawn) [mepazine]
Details | SARS-CoV-2 infection rate [%] | cell count [%] | cell viability [%] | morphology score | phospholipidosis EC50 [µM]
A549-ACE2 [20], 24 h | – | – | – | – | 3.88
A549-ACE2 [20], 48 h | – | – | – | – | 6.39
A549-ACE2 [20], 72 h | – | – | – | – | 9.51
Caco-2 [18], 1 nM | – | – | 94.1 | – | –
Caco-2 [18], 10 nM | – | – | 98.3 | – | –
Caco-2 [18], 100 nM | – | – | 98.2 | – | –
Caco-2 [18], 1000 nM | – | – | 101 | – | –
Caco-2 [18], 10000 nM | – | – | 85.7 | – | –
Calu-3 [17], 1 nM | – | – | 106 | – | –
Calu-3 [17], 10 nM | – | – | 99.2 | – | –
Calu-3 [17], 100 nM | – | – | 99.3 | – | –
Calu-3 [17], 1000 nM | – | – | 99.5 | – | –
Calu-3 [17], 10000 nM | – | – | 72.8 | – | –
HepG2 [16], 1 nM | – | – | 98.3 | – | –
HepG2 [16], 10 nM | – | – | 102 | – | –
HepG2 [16], 100 nM | – | – | 100 | – | –
HepG2 [16], 1000 nM | – | – | 87.9 | – | –
HepG2 [16], 10000 nM | – | – | 84.8 | – | –
U2OS [15], 1 nM | – | – | 99.1 | – | –
U2OS [15], 10 nM | – | – | 98.6 | – | –
U2OS [15], 100 nM | – | – | 98.6 | – | –
U2OS [15], 1000 nM | – | – | 100 | – | –
U2OS [15], 10000 nM | – | – | 91.4 | – | –
Vero E6 [14], 1 nM | – | – | 101 | – | –
Vero E6 [14], 10 nM | – | – | 101 | – | –
Vero E6 [14], 100 nM | – | – | 103 | – | –
Vero E6 [14], 1000 nM | – | – | 97.1 | – | –
Vero E6 [14], 10000 nM | – | – | 94.8 | – | –
[1], 0.3 µM | – | – | – | 0.02 | –
[1], 3 µM | – | – | – | 0.61 | –
[1], 10 µM | – | – | – | 0.86 | –
[1], 30 µM | – | – | – | 0.32 | –
[7], 0.3 µM | – | 103 | – | – | –
[7], 3 µM | – | 112 | – | – | –
[7], 10 µM | – | 122 | – | – | –
[7], 30 µM | – | 113 | – | – | –
[8], 0.3 µM | 102 | – | – | – | –
[8], 3 µM | 59 | – | – | – | –
[8], 10 µM | 16 | – | – | – | –
[8], 30 µM | 27 | – | – | – | –

drug-induced phospholipidosis [%], A549-ACE2 [2]
Details | 0.3 µM | 0.833333 µM | 3.33333 µM | 6.66667 µM | 10 µM | 30 µM
24 h | 2.48 | 6.78 | 32.9 | 53.3 | 64.8 | 70.3
48 h | 1.98 | 4.75 | 20.8 | 48.9 | 65.8 | 86.6
72 h | 3.11 | 3.43 | 18.8 | 39.1 | 63.9 | 101

Details | drug sensitivity score | relative viability EC50
Caco-2 [6] | – | > 10 µM
Caco-2 [13] | 0.1 | –
Calu-3 [12] | 1.2 | –
HepG2 [5] | – | > 10000 nM
HepG2 [11] | 1.1 | –
U2OS [4] | – | > 10 µM
U2OS [10] | 0 | –
Vero E6 [3] | – | > 10 µM
Vero E6 [9] | 0 | –

CN(C)CCc1c[nH]c2ccc(C[C@H]3COC(=O)N3)cc12 [zolmitriptan]
Details | drug sensitivity score | relative viability EC50
Caco-2 [6] | – | > 10 µM
Caco-2 [13] | 0 | –
Calu-3 [12] | 0 | –
Calu-3 [19] | – | > 10000 nM
HepG2 [5] | – | > 10000 nM
HepG2 [11] | 0 | –
U2OS [4] | – | > 10 µM
U2OS [10] | 0 | –
Vero E6 [3] | – | > 10 µM
Vero E6 [9] | 0 | –

cell viability [%]
Details | Caco-2 [18] | Calu-3 [17] | HepG2 [16] | U2OS [15] | Vero E6 [14]
1 nM | 96.9 | 92.2 | 112 | 99 | 108
10 nM | 102 | 94.2 | 111 | 99.7 | 98.3
100 nM | 96.8 | 95.2 | 99 | 96.8 | 106
1000 nM | 110 | 93.2 | 87.6 | 103 | 106
10000 nM | 97.8 | 97 | 111 | 96.9 | 104
